The source of these data is patent publication US8088806B2 (Achillion Pharmaceuticals, Inc., priority 2005, dated 2012).

The first assay concerns HCV replicon. In words: Replicon based assay of HCV replication inhibition (NPT ELISA). It counts as cell-based, Hepatitis C virus. The note with it: Hepatitis C virus, Huh-7, 72 h, Table III; Huh-7 HCV replicon-containing cells, three days; read-out: Activity. The method, boiled down:
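NPT (neomycin phosphotransferase) content, proportional to replicon replication, quantified by capture ELISA on day four. Before that, replicon-bearing Huh-7 cells in G418-free screening medium were exposed three days at 37° C to compound, typically six doses from 10 to 0.03 micromolar, with equal DMSO across wells.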
On the technique in general: In antiviral work, replicon cells carry a viral genome segment that copies itself.
On to `CCCCCCCCOc1ccc(Nc2nc(-c3ncccc3O)cs2)cc1C(F)(F)F` [compound 710, 2-(2-(3-(trifluoromethyl)-4-(octyloxy)phenylamino)thiazol-4-yl)pyridin-3-ol], for which the EC50 is below 1 µM.

On to `CCCCCCCCOc1ccc(Nc2nc(-c3cccc(S(N)(=O)=O)c3)cs2)cc1C(F)(F)F` [compound 711], for which the EC50 is below 1 µM.

Take `CCCCCCCCOc1ccc(Nc2nc(-c3ccc(S(N)(=O)=O)cc3)cs2)cc1C(F)(F)F` [compound 712]: the EC50 was below 1 µM.

Take `CCCCCCCCOc1ccc(Nc2nc(-c3cnc(OC)nc3OC)cs2)cc1C(F)(F)F` [compound 713, N-(3-(trifluoromethyl)-4-(octyloxy)phenyl)-4-(2,4-dimethoxypyrimidin-5-yl)thiazol-2-amine]: the EC50 was below 1 µM.

As for `CCCCCCCCOc1ccc(Nc2nc(-c3ccsc3)cs2)cc1C(F)(F)F` [compound 714, N-(3-(trifluoromethyl)-4-(octyloxy)phenyl)-4-(thiophen-3-yl)thiazol-2-amine], the EC50 is below 1 µM.

Take `CCCCCCCCOc1ccc(Nc2nc(-c3cccc(C(F)(F)F)c3)cs2)cc1C(F)(F)F` [compound 715, N-(3-(trifluoromethyl)-4-(octyloxy)phenyl)-4-(3-(tnfluoromethyl)phenyl)thiazol-2-amine]: the EC50 is below 1 µM.

`CCCCCCCc1nc2cc(Nc3nc(-c4cccnc4)cs3)ccc2o1` [compound 716, 2-heptyl-N-(4-(pyridin-3-yl)thiazol-2-yl)benzo[d]oxazol-5-amine]: the EC50 was below 1 µM.

For the compound `CCCCCCCc1nc2cc(Nc3nc(-c4cnc(OC)nc4)cs3)ccc2o1` [compound 717, 2-heptyl-N-(4-(2-methoxypyrimidin-5-yl)thiazol-2-yl)benzo[d]oxazol-5-amine], the EC50 was below 1 µM.

Turning to `O=C1OCc2cc(-c3csc(Nc4ccc(OCC5CCCCC5)c(F)c4)n3)ccc21` [compound 718, 5-(2-(4-(cyclohexylmethoxy)-3-fluorophenylamino)thiazol-4-yl)isobenzofuran-1(3H)-one], the EC50 lay within 1 to 10 µM.

Take `Fc1cc(Nc2nc(-c3ccc(-n4ccnc4)cc3)cs2)ccc1OCC1CCCCC1` [compound 719, 4-(4-(1H-imidazol-1-yl)phenyl)-N-(4-(cyclohexylmethoxy)-3-fluorophenyl)thiazol-2-amine]: the EC50 was below 1 µM.

The same assay, now with this note: Hepatitis C virus, replicon based assay of HCV replication inhibition; Table IV; read-out: Activity.
Consider `COc1ncc(-c2csc(Nc3ccc(OCC4CCCCC4)c(F)c3)n2)cn1` [compound 720, N-(4-(cyclohexylmethoxy)-3-fluorophenyl)-4-(2-methoxypyrimidin-5-yl)thiazol-2-amine], for which the EC50 was below 1 µM.

`Fc1cc(Nc2nc(-c3cccc4nsnc34)cs2)ccc1OCC1CCCCC1` [compound 722, 4-(benzo[c][1,2,5]thiadiazol-4-yl)-N-(4-(cyclohexylmethoxy)-3-fluorophenyl)thiazol-2-amine]: the EC50 was 1 to 10 µM.

`O=c1[nH]c2ccc(-c3csc(Nc4ccc(OCC5CCCCC5)c(F)c4)n3)cc2c(=O)o1` [compound 723, 6-(2-(4-(cyclohexylmethoxy)-3-fluorophenylamino)thiazol-4-yl)-1H-benzo[d][1,3]oxazine-2,4-dione]: the EC50 was in the range of 1 to 10 µM.

Regarding `OCCc1ccc(-c2csc(Nc3ccc(OCC4CCCCC4)c(F)c3)n2)cc1` [compound 724, 2-(4-(2-(4-(cyclohexylmethoxy)-3-fluorophenylamino)thiazol-4-yl)phenyl)ethanol], the EC50 was in the range of 1 to 10 µM.

With `NC(=O)c1sccc1-c1csc(Nc2ccc(OCC3CCCCC3)c(F)c2)n1` [compound 725, 3-(2-(4-(cyclohexylmethoxy)-3-fluorophenylamino)thiazol-4-yl)thiophene-2-carboxamide], the EC50 was below 1 µM.

On to `Fc1cc(Nc2nc(-c3ccc(-c4csnn4)cc3)cs2)ccc1OCC1CCCCC1` [compound 726, 4-(4-(1,2,3-thiadiazol-4-yl)phenyl)-N-(4-(cyclohexylmethoxy)-3-fluorophenyl)thiazol-2-amine], for which the EC50 fell in the range of 1 to 10 µM.

For the compound `O=C1CSc2cc(-c3csc(Nc4ccc(OCC5CCCCC5)c(F)c4)n3)ccc2N1` [compound 727, 7-(2-(4-(cyclohexylmethoxy)-3-fluorophenylamino)thiazol-4-yl)-2H-benzo[b][1,4]thiazin-3(4H)-one], the EC50 was 1 to 10 µM.

As to `N#Cc1cncc(-c2csc(Nc3ccc(OCC4CCCCC4)c(F)c3)n2)c1` [compound 728, 5-(2-(4-(cyclohexylmethoxy)-3-fluorophenylamino)thiazol-4-yl)pyridine-3-carbonitrile], the EC50 was below 1 µM.

For the compound `N#Cc1sccc1-c1csc(Nc2ccc(OCC3CCCCC3)c(F)c2)n1` [compound 729, 3-(2-(4-(cyclohexylmethoxy)-3-fluorophenylamino)thiazol-4-yl)thiophene-2-carbonitrile], the EC50 was below 1 µM.

With `CCCCCCCCOc1ccc(Nc2nc(-c3cccc(C(=O)OCC)n3)cs2)cc1C(F)(F)F` [compound 730, ethyl 6-(2-(3-(trifluoromethyl)-4-(octyloxy)phenylamino)thiazol-4-yl)pyridine-2-carboxylate], the EC50 is below 1 µM.

Turning to `CCCCCCCCOc1ccc(Nc2nc(-c3nc(C(=O)OCC)cs3)cs2)cc1C(F)(F)F` [compound 731, ethyl 2-(2-(3-(trifluoromethyl)-4-(octyloxy)phenylamino)thiazol-4-yl)thiazole-4-carboxylate], the EC50 was below 1 µM.

Regarding `CCCCCCCCOc1ccc(Nc2nc(-c3ncc(C(=O)OCC)s3)cs2)cc1C(F)(F)F` [compound 732, ethyl 2-(2-(3-(trifluoromethyl)-4-(octyloxy)phenylamino)thiazol-4-yl)thiazole-5-carboxylate], the EC50 was below 1 µM.

For the compound `CCCCCCCCOc1ccc(Nc2nc(-c3ccc(O)nc3)cs2)cc1C(F)(F)F` [compound 733, 5-(2-(3-(trifluoromethyl)-4-(octyloxy)phenylamino)thiazol-4-yl)pyridin-2-ol], the EC50 was below 1 µM.

For `CCCCCCCCOc1ccc(Nc2nc(-c3ccc(OC)nc3)cs2)cc1C(F)(F)F` [compound 734, N-(3-(trifluoromethyl)-4-(octyloxy)phenyl)-4-(6-methoxypyridin-3-yl)thiazol-2-amine], the EC50 is below 1 µM.

For `CN(C)c1ccc(-c2csc(Nc3ccc(OC4CCCC4)c(C(F)(F)F)c3)n2)cn1` [compound 735, 5-(2-(4-(cyclopentyloxy)-3-(trifluoromethyl)phenylamino)thiazol-4-yl)-N,N-dimethylpyridin-2-amine], the EC50 lay in the range of 1 to 10 µM.

For `c1ccc(-c2nc3cc(Nc4nc(-c5cccnc5)cs4)ccc3o2)cc1` [compound 736, 2-phenyl-N-(4-(pyridin-3-yl)thiazol-2-yl)benzo[d]oxazol-5-amine], the EC50 was below 1 µM.

For `c1cncc(-c2csc(Nc3ccc4c(c3)OCCO4)n2)c1` [compound 737, N-(2,3-dihydrobenzo[b][1,4]dioxin-6-yl)-4-(pyridin-3-yl)thiazol-2-amine], the EC50 was above 10 µM.

Turning to `Clc1ccc(-c2cc(Nc3nc(-c4cccnc4)cs3)[nH]n2)cc1` [compound 738, 3-(4-chlorophenyl)-N-(4-(pyridin-3-yl)thiazol-2-yl)-1H-pyrazol-5-amine], the EC50 was above 10 µM.

On to `Brc1ccc(Nc2nc(-c3cccnc3)cs2)nc1` [compound 739, 5-bromo-N-(4-(pyridin-3-yl)thiazol-2-yl)pyridin-2-amine], for which the EC50 is above 10 µM.
